# According to patent publication US20260263479A1, “KRAS G12D INHIBITORS AND USES THEREOF” (SUZHOU ZANRONG PHARMA LIMITED, priority 2023, published 2026):
# Tested on: PANC-1 pERK
# Experiment: Phospho-ERK 1/2 assay
# Type: cell-based
# Details: Homo sapiens, PANC-1, 3 h, PANC-1 cells, 3 hours incubation with compound
# Protocol: Allow PNAC-1 cell growth in a T75 flask in DMEM and 10% 1 fetal calf serum (FCS; Gibco®), using standard tissue culture procedures until ~80% confluency is achieved. Day 1, seed 6000 cells/well in 384 well plate and incubate at 37° C., 5% CO2. Add diluted compound by Echo 550, final DMSO is 0.5%, incubate cells at 37° C., 5% CO2 for 3 hours. Then, remove medium and fix cells with 3.7% formaldehyde in PBS (PFA) by Apricot. Wash with PBS once. Permeabilize cells with cold 100% methanol and repeat wash once with PBS once. Add Li-Cor blocking buffer to each well and incubate 1.5 hours at RT. Remove blocking buffer and add primary antibody mixture (rabbit anti pERK, mouse anti GAPDH). Incubate at 4° C. overnight. Day 2, wash with PBST (Tween-20 in PBS) with total 3 times and then add secondary antibody mixture (goat anti rabbit 800CW (1:800 dilution in the combined solution) and goat anti mouse 680RD (1:800 dilution in the combined solution)), incubate for 60 minutes at RT away from light. Repeat washing with PBST 3 times. After final wash, centrifuge plate up-side-down at 1000 rpm to remove wash solution completely from wells. Before plate scanning, clean the bottom plate surface and the Odyssey® Imager scanning bed (if applicable) with moist, lint-free tissue to avoid any obstructions during scanning. Scan plate with detection in both 700 and 800 nm channels.
row,SMILES,IC50
1,C=C1CN2CC(=C)CC2(COc2cc3c4c(nc(-c5cc(O)cc6ccc(F)c(CC)c56)c(F)c4n2)O[C@@H](C)[C@@H]2[C@@H]4CC[C@H](CN32)N4)C1 [Example 570],76 nM
2,C#Cc1c(F)ccc2cccc(-c3nc4c5c(cc(OC[C@@]67CC(=C)CN6C[C@H](F)C7)nc5c3F)N3C[C@H]5CC[C@H](N5)[C@H]3[C@H](C)O4)c12 [Example 608],251 nM
3,C=C1CN2CCC[C@@]2(COc2cc3c4c(nc(-c5cccc6ccc(F)c(CC)c56)c(F)c4n2)O[C@@H](C)[C@@H]2[C@@H]4CC[C@H](CN32)N4)C1 [Example 606],246 nM
4,"C#Cc1c(F)ccc2cc(O)cc(-c3nc4c5c(cc(OC[C@@]67CCCN6CC(=C)C7)nc5c3F)N3C[C@H]5CC[C@H](N5)[C@H]3CO4)c12 [Example 2, 5-ethynyl-6-fluoro-4-((5aS,6S,9R)-1-fluoro-13-(((S)-2-methylenetetrahydro-1H-pyrrolizin-7a (5H)-yl)methoxy)-5a,6,7,8,9,10-hexahydro-5H-6,9-epiminoazepino[2′,1′: 3,4][1,4]oxazepino[5,6,7-de][1,6]naphthyridin-2-yl)naphthalen-2-ol]",14 nM
5,"C#Cc1c(F)ccc2cccc(-c3nc4c5c(cc(OC[C@@]67CCCN6CC(=C)C7)nc5c3F)N3C[C@H]5CC[C@H](N5)[C@H]3CO4)c12 [Example 78, (5aS,6S,9R)-2-(8-ethynyl-7-fluoronaphthalen-1-yl)-1-fluoro-13-(((S)-2-methylenetetrahydro-1H-pyrrolizin-7a (5H)-yl)methoxy)-5a,6,7,8,9,10-hexahydro-5H-6,9-epiminoazepino[2′,1′: 3,4][1,4]oxazepino[5,6,7-de][1,6]naphthyridine]",464 nM
6,C#Cc1c(F)ccc2cc(O)cc(-c3nc4c5c(cc(OCC67CC(=C)CN6CC(=C)C7)nc5c3F)N3C[C@H]5CC[C@H](N5)[C@H]3[C@H](C)O4)c12 [Example 567],0.95 nM
7,C#Cc1c(F)ccc2cccc(-c3nc4c5c(cc(OC[C@@]67CCCN6C[C@H](F)C7)nc5c3F)N3C[C@H]5CC[C@H](N5)[C@H]3[C@H](C)O4)c12 [Example 571],17 nM
8,Cc1cc(N)nc(-c2nc3c4c(cc(OC[C@@]56CCCN5C[C@H](F)C6)nc4c2F)N2C[C@H]4CC[C@H](N4)[C@H]2[C@H](C)O3)c1C(F)(F)F [Example 574],33 nM
9,"CCc1c(F)ccc2cc(O)cc(-c3nc4c5c(cc(OC[C@@]67CCCN6C[C@H](F)C7)nc5c3F)N3C[C@H]5CC[C@H](N5)[C@H]3[C@H](C)O4)c12 [Example 568, 5-ethyl-6-fluoro-4-((5S,5aS,6S,9R)-1-fluoro-13-(((2R,7aS)-2-fluorotetrahydro-1H-pyrrolizin-7a (5H)-yl)methoxy)-5-methyl-5a,6,7,8,9,10-hexahydro-5H-6,9-epiminoazepino[2′,1′: 3,4][1,4]oxazepino[5,6,7-de][1,6]naphthyridin-2-yl)naphthalen-2-ol]",5.6 nM
10,Cc1cc(N)nc(-c2c(F)c3c4c(cc(OCC5(CN6CCOC[C@H]6C)CC5)nc4c2F)N2C[C@H]4CC[C@H](N4)[C@H]2[C@H](C)O3)c1C(F)(F)F [Example 613a],111 nM
11,C#Cc1c(F)ccc2cccc(-c3nc4c5c(cc(OC[C@@]67CCCN6C/C(=C/F)C7)nc5c3F)N3C[C@H]5CC[C@H](N5)[C@H]3[C@H](C)O4)c12 [Example 603],48 nM
12,CCc1c(F)ccc2cc(O)cc(-c3nc4c5c(cc(OC[C@@]67CCCN6C[C@H](F)C7)nc5c3F)N3C[C@@]5(C)CC[C@H](N5)[C@H]3[C@H](C)O4)c12 [Example 615],25 nM
13,"C#Cc1c(F)ccc2cc(O)cc(-c3nc4c5c(cc(OC[C@@]67CCCN6C[C@H](F)C7)nc5c3F)N3C[C@H]5CC[C@H](N5)[C@H]3[C@H](C)O4)c12 [Example 565, 5-ethynyl-6-fluoro-4-((5S,5aS,6S,9R)-1-fluoro-13-(((2R,7aS)-2-fluorotetrahydro-1H-pyrrolizin-7a (5H)-yl)methoxy)-5-methyl-5a,6,7,8,9,10-hexahydro-5H-6,9-epiminoazepino[2′,1′: 3,4][1,4]oxazepino[5,6,7-de][1,6]naphthyridin-2-yl)naphthalen-2-ol]",1.2 nM
14,C#Cc1c(F)ccc2cccc(-c3nc4c5c(cc(OC[C@@]67CCCN6CC6(CC6(F)F)C7)nc5c3F)N3C[C@H]5CC[C@H](N5)[C@H]3[C@H](C)O4)c12 (some centres unmarked) [Example 604],184 nM
15,"C=C1CN2CCC[C@@]2(COc2cc3c4c(nc(-c5cc(O)cc6ccc(F)c(CC)c56)c(F)c4n2)OC[C@@H]2[C@@H]4CC[C@H](CN32)N4)C1 [Example 40, 5-ethyl-6-fluoro-4-((5aS,6S,9R)-1-fluoro-13-(((S)-2-methylenetetrahydro-1H-pyrrolizin-7a (5H)-yl)methoxy)-5a,6,7,8,9,10-hexahydro-5H-6,9-epiminoazepino[2′,1′: 3,4][1,4]oxazepino[5,6,7-de][1,6]naphthyridin-2-yl)naphthalen-2-ol]",16 nM
16,C=C1CN2CCCC2(COc2cc3c4c(nc(-c5cc(O)cc6ccc(F)c(CC)c56)c(F)c4n2)O[C@@H](C)[C@@H]2[C@@H]4CC[C@H](CN32)N4)C1 (some centres unmarked) [Example 569],1.7 nM
17,C#Cc1c(F)ccc2cc(O)cc(-c3nc4c5c(cc(OCC67CCCN6CC(=C)C7)nc5c3F)N3C[C@H]5CC[C@H](N5)[C@H]3[C@H](C)O4)c12 (some centres unmarked) [Example 566],2.9 nM
18,CCc1c(F)ccc2cc(O)cc(-c3nc4c5c(cc(OC[C@@]67CCCN6C/C(=C\F)C7)nc5c3F)N3C[C@H]5CC[C@H](N5)[C@H]3[C@H](C)O4)c12 [Example 601],8.2 nM
19,"C#Cc1c(F)ccc2cc(O)cc(-c3nc4c5c(cc(OCC67CC(=C)CN6CC(=C)C7)nc5c3F)N3C[C@H]5CC[C@H](N5)[C@H]3CO4)c12 [Example 4, 4-((5aS,6S,9R)-13-((2,6-dimethylenetetrahydro-1H-pyrrolizin-7a (5H)-yl)methoxy)-1-fluoro-5a,6,7,8,9,10-hexahydro-5H-6,9-epiminoazepino[2′,1′: 3,4][1,4]oxazepino[5,6,7-de][1,6]naphthyridin-2-yl)-5-ethynyl-6-fluoronaphthalen-2-ol]",34 nM
20,C#Cc1c(F)ccc2cc(O)cc(-c3nc4c5c(cc(OC[C@@]67CCCN6C[C@H](F)C7)nc5c3F)N3C[C@@]5(C)CC[C@H](N5)[C@H]3[C@H](C)O4)c12 [Example 614],8.1 nM
21,C#Cc1c(F)ccc2cccc(-c3nc4c5c(cc(OC[C@]67CC(=C)CN6C[C@@H](F)C7)nc5c3F)N3C[C@H]5CC[C@H](N5)[C@H]3[C@H](C)O4)c12 [Example 607],198 nM
22,C#Cc1c(F)ccc2cc(O)cc(-c3nc4c5c(cc(OC[C@@]67CCCN6C/C(=C\F)C7)nc5c3F)N3C[C@H]5CC[C@H](N5)[C@H]3[C@H](C)O4)c12 [Example 602],1.5 nM
23,C#Cc1c(F)ccc2cccc(-c3nc4c5c(cc(OCC67CCCN6CC(=C)C7)nc5c3F)N3C[C@H]5CC[C@H](N5)[C@H]3[C@H](C)O4)c12 (some centres unmarked) [Example 572],14 nM
24,C#Cc1c(F)ccc2cccc(-c3nc4c5c(cc(OC[C@@]67CC(=C)CN6C[C@H](OC)C7)nc5c3F)N3C[C@H]5CC[C@H](N5)[C@H]3[C@H](C)O4)c12 [Example 609],9.6 nM
25,C#Cc1c(F)ccc2cccc(-c3nc4c5c(cc(OCC6(CN7CCOC[C@H]7C)CC6)nc5c3F)N3C[C@H]5CC[C@H](N5)[C@H]3[C@H](C)O4)c12 [Example 611],14 nM

# Same assay, conditions: PANC-1 cells, 3 hours incubation with compound
row,SMILES,IC50
1,"C#Cc1c(F)ccc2cc(O)cc(-c3c(F)c4c5c(cc(OC[C@@]67CCCN6C[C@H](F)C7)nc5c3F)N3C[C@H]5CC[C@H](N5)[C@H]3[C@H](C)O4)c12 (single isomer, unassigned) [Example 577a]",0.68 nM
2,C=C1CN2CC(=C)CC2(COc2cc3c4c(nc(-c5cc(O)cc6ccc(F)c(CC)c56)c(F)c4n2)OC[C@@H]2[C@@H]4CC[C@H](CN32)N4)C1 [compound 42],169 nM
3,C#Cc1cccc2cccc(-c3nc4c5c(cc(OC[C@@]67CCCN6CC(=C)C7)nc5c3F)N3C[C@H]5CC[C@H](N5)[C@H]3[C@H](C)O4)c12 [Example 605],25 nM
4,"C#Cc1c(F)ccc2cc(O)cc(-c3c(F)c4c5c(cc(OC[C@@]67CCCN6C[C@H](F)C7)nc5c3F)N3C[C@H]5CC[C@H](N5)[C@H]3[C@H](C)O4)c12 (single isomer, unassigned) [Example 577b]",23.1 nM

# Molecular target: T1, P-glycoprotein (Pgp) (Homo sapiens, UniProt P08183)
# T1 construct: expressed in transfected cells; host or cells: MDCK-MDR1 cells
# T1 sequence (P08183 whole entry): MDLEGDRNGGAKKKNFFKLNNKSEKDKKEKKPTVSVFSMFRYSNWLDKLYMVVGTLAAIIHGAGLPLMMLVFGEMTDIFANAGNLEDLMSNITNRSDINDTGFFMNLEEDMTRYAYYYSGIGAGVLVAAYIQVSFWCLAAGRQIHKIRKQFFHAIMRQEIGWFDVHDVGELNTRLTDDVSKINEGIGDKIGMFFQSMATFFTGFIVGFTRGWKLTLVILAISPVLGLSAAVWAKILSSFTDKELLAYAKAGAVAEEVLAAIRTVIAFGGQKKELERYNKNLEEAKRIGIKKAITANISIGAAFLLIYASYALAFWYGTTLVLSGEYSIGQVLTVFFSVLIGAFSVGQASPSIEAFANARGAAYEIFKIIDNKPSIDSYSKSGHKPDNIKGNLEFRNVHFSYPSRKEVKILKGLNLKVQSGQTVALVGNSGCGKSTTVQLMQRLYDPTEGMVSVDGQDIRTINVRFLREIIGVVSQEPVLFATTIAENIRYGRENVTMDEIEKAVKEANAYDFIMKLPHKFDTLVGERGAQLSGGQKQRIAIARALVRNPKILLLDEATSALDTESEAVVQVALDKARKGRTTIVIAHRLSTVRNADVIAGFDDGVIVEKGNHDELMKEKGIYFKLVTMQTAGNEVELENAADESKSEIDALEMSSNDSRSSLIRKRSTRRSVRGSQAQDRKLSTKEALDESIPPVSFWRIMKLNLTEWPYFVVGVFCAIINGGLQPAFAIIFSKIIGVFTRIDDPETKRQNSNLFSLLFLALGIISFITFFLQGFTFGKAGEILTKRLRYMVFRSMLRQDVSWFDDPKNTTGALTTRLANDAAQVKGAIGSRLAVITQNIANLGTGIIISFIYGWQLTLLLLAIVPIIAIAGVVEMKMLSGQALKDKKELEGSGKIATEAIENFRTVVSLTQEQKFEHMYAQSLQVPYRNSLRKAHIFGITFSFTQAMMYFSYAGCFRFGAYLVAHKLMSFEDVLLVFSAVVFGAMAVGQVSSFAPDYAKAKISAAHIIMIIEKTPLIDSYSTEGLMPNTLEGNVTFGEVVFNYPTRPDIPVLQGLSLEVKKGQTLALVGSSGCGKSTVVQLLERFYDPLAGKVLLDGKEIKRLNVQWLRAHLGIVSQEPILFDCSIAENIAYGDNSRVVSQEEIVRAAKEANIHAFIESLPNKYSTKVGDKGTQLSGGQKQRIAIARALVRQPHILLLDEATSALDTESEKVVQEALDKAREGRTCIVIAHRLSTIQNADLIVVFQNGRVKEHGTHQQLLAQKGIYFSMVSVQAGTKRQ
# Experiment: MDCK-MDR1 Pgp assessment
# Type: in vitro ADME
# Details: dog, MDCK-MDR1 cells, 37° C., read-out: Pgp Efflux Ratio (Pexact)
# Protocol: Efflux transport mediated by P-glycoprotein (Pgp) was assessed by MDCK-MDR1 cells. The final concentrations of test compounds and control compound were at 1 μM. The multi-well insert plate was incubated at 37° C. for 2 hours. In order to reliably measure passive permeability coefficients, Pexact was reported, which automatically corrects for loss of compound.
row,SMILES,"efflux ratio at 2 h, 1 μM"
1,"C#Cc1c(F)ccc2cc(O)cc(-c3nc4c5c(cc(OC[C@@]67CCCN6CC(=C)C7)nc5c3F)N3C[C@H]5CC[C@H](N5)[C@H]3CO4)c12 [Example 2, 5-ethynyl-6-fluoro-4-((5aS,6S,9R)-1-fluoro-13-(((S)-2-methylenetetrahydro-1H-pyrrolizin-7a (5H)-yl)methoxy)-5a,6,7,8,9,10-hexahydro-5H-6,9-epiminoazepino[2′,1′: 3,4][1,4]oxazepino[5,6,7-de][1,6]naphthyridin-2-yl)naphthalen-2-ol]",5.37
2,"C#Cc1c(F)ccc2cc(O)cc(-c3nc4c5c(cc(OC[C@@]67CCCN6C[C@H](F)C7)nc5c3F)N3C[C@H]5CC[C@H](N5)[C@H]3[C@H](C)O4)c12 [Example 565, 5-ethynyl-6-fluoro-4-((5S,5aS,6S,9R)-1-fluoro-13-(((2R,7aS)-2-fluorotetrahydro-1H-pyrrolizin-7a (5H)-yl)methoxy)-5-methyl-5a,6,7,8,9,10-hexahydro-5H-6,9-epiminoazepino[2′,1′: 3,4][1,4]oxazepino[5,6,7-de][1,6]naphthyridin-2-yl)naphthalen-2-ol]",5.25
3,C#Cc1c(F)ccc2cc(O)cc(-c3nc4c5c(cc(OCC67CCCN6CC(=C)C7)nc5c3F)N3C[C@H]5CC[C@H](N5)[C@H]3[C@H](C)O4)c12 (some centres unmarked) [Example 566],13
